According to PMC10318456, “Selective inhibitors of the PSEN1–gamma-secretase complex” (The Journal of Biological Chemistry, 2023):

Assays:
Format in all cases: cell-based
[1] = molecular target: T1, PSEN1 Y154A–APH1A γ-secretase complex (Homo sapiens, UniProt P49768, Y154A); experiment: Aβ40 secretion, MEF cell pool restored with PSEN1 Y154A–APH1A; conditions: decimal comma
T1 construct: expressed in transfected cells; host or cells: Psen1/2 double KO/Aph1ABC triple KO MEFs, pools without clonal selection
Procedure: (§1) We turned to experimental site–directed mutagenesis and selected a series of amino acids (Fig. 3) in the entrance channel for mutation to alanine. […] More importantly, they were all enzymatically active as shown by the secretion of Aβ40 in the supernatants of the cell cultures (Fig. 3B).
(§2) Conditional Psen1/2 double KO mice were crossed with conditional Aph1ABC triple KO mice ([29], [52], [58], [59]). At embryonic day 7.5, embryos were dissected and dissociated, and cells were plated in the presence of Dulbecco’s modified Eagle’s medium (DMEM)/F12 50% fetal calf serum (FCS) (Invitrogen). Primary MEFs were immortalized by transduction with LargeT antigen. Psen1/2 double KO/Aph1ABC triple KO MEFs were generated by transduction with a Cre-GFP–expressing adenoviral vector, and GFP-positive MEFs were sorted by fluorescence-activated cell sorting analysis. Psen1/2 Aph1ABC-deficient MEFs were maintained in DMEM/f12 10% FCS. To rescue γ-secretase expression, Psen1/2 double KO/Aph1ABC triple KO MEFs were transduced using Murine Stem Cell Virus retroviral vector system (pMSCV) viral vectors (Clontech) containing the human coding sequences of the different PSEN and APH1 homologs and the zeocin selection marker. An Internal Ribosome Entry Site sequence was cloned between the coding sequences for PSEN and APH1 to ensure co-expression of both proteins. Stable transfected cell lines were selected using 500-μg/ml zeocin (Invitrogen). Four different combinations were made: PSEN1 and APH1AL, PSEN1 and APH1B, PSEN2 and APH1AL, and PSEN2 and APH1B. These cell lines were transduced with pMSCV viral vectors (Clontech) expressing APP-C99-GFP-puromycin. […]
(§3) The number of plated cells and incubation times were determined in respect to linearity of Aβ peptide secretion, the dynamic range of Aβ peptide quantification in the medium, and sensitivity to dimethylsulfoxide (DMSO). […] The cell viability was assessed using the CellTiter-Glo Luminescent assay (Promega) that measures ATP production. […] We however measured five compounds at the Leuven site and noticed that absolute IC50 values were different (Fig. S2). […]

[2] = molecular target: T2, PSEN1 F388A–APH1A γ-secretase complex (Homo sapiens, UniProt P49768, F388A); experiment: Aβ40 secretion, MEF cell pool restored with PSEN1 F388A–APH1A; conditions: decimal comma; for IC50: PSEN1 F388A (TM7)–APH1A cell pool, N = 3 to 4, mean (95% CI)
T2 construct: expressed in transfected cells; host or cells: Psen1/2 double KO/Aph1ABC triple KO MEFs, pools without clonal selection
Procedure: as §1, §2, §3

[3] = molecular target: T3, PSEN1-APH1A γ-secretase complex (Homo sapiens, UniProt P49768); experiment: Aβ40 secretion by MEF cell line expressing only PSEN1-APH1A γ-secretase (APP-C99-GFP reporter); conditions: 8 h, Beerse site unless otherwise indicated, read-out: IC50, Aβ40 peptides
T3 construct: expressed in transfected cells; host or cells: Psen1/2 double KO/Aph1ABC triple KO MEFs, pMSCV retroviral PSEN-IRES-APH1
Source text: (§4) Mouse embryonic fibroblast (MEF) cells deficient for the Psen and Aph1 genes (Psen1/2^−/−, Aph1ABC^−/−) were reconstituted with human PSEN1 or PSEN2 and with human APH1A or APH1B to generate four independent cell lines, each constitutively expressing exclusively one type of γ-secretase complex (Fig. S1A) ([19]). A human APP-C99-GFP reporter was introduced to enable the measurement of Aβ peptides in the conditioned media of the cells to monitor γ-secretase activity. The assay was established in a 96-well format.
Conditional Psen1/2 double KO mice were crossed with conditional Aph1ABC triple KO mice ([29], [52], [58], [59]). At embryonic day 7.5, embryos were dissected and dissociated, and cells were plated in the presence of Dulbecco’s modified Eagle’s medium (DMEM)/F12 50% fetal calf serum (FCS) (Invitrogen). Primary MEFs were immortalized by transduction with LargeT antigen. Psen1/2 double KO/Aph1ABC triple KO MEFs were generated by transduction with a Cre-GFP–expressing adenoviral vector, and GFP-positive MEFs were sorted by fluorescence-activated cell sorting analysis. Psen1/2 Aph1ABC-deficient MEFs were maintained in DMEM/f12 10% FCS. To rescue γ-secretase expression, Psen1/2 double KO/Aph1ABC triple KO MEFs were transduced using Murine Stem Cell Virus retroviral vector system (pMSCV) viral vectors (Clontech) containing the human coding sequences of the different PSEN and APH1 homologs and the zeocin selection marker. An Internal Ribosome Entry Site sequence was cloned between the coding sequences for PSEN and APH1 to ensure co-expression of both proteins. Stable transfected cell lines were selected using 500-μg/ml zeocin (Invitrogen). Four different combinations were made: PSEN1 and APH1AL, PSEN1 and APH1B, PSEN2 and APH1AL, and PSEN2 and APH1B. These cell lines were transduced with pMSCV viral vectors (Clontech) expressing APP-C99-GFP-puromycin. After puromycin selection (5 μg/ml), GFP-positive cells were selected through FACS sorting. For the alanine mutagenesis experiment, pMSCV PSEN1-APH1A viral vectors were generated by using a long PCR-based QuikChange strategy (Stratagene). Stable cell lines without clonal selection were generated for each mutant as described above. All cell lines were regularly tested for the absence of mycoplasma and used for maximum 20 passages in culture.
(§5) The number of plated cells and incubation times were determined in respect to linearity of Aβ peptide secretion, the dynamic range of Aβ peptide quantification in the medium, and sensitivity to dimethylsulfoxide (DMSO). […] The cell viability was assessed using the CellTiter-Glo Luminescent assay (Promega) that measures ATP production. […]

[4] = molecular target: T4, PSEN2-APH1A γ-secretase complex (Homo sapiens, UniProt P49810+Q92542+Q96BI3+Q9NZ42); experiment: Aβ40 secretion by MEF cell line expressing only PSEN2-APH1A γ-secretase (APP-C99-GFP reporter); conditions: 8 h, Beerse site unless otherwise indicated, read-out: IC50, Aβ40 peptides
T4 construct: expressed in transfected cells; host or cells: Psen1/2 double KO/Aph1ABC triple KO MEFs, pMSCV retroviral PSEN-IRES-APH1
Source text: as §4
as §2, with “(Invitrogen).” for “(Invitrogen). Four different combinations were made: PSEN1 and APH1AL, PSEN1 and APH1B, PSEN2 and APH1AL, and PSEN2 and APH1B. These cell lines were transduced with pMSCV viral vectors (Clontech) expressing APP-C99-GFP-puromycin.”
as §5

[5] = molecular target: T5, PSEN1 Y154A–APH1A γ-secretase complex (Homo sapiens, UniProt P49768+Q92542+Q96BI3+Q9NZ42, Y154A); experiment: Aβ40 secretion, MEF cell pool restored with PSEN1 Y154A–APH1A; conditions: PSEN1 Y154A (TM2)–APH1A cell pool; N = 3 to 4; mean (95% CI); decimal comma
T5 construct: expressed in transfected cells; host or cells: Psen1/2 double KO/Aph1ABC triple KO MEFs, pools without clonal selection
Procedure: as §1, §2, §3

Row | SMILES | IC50 ([1]; PSEN1 Y154A (TM2)–APH1A cell pool, N = 3 to 4, mean (95% CI)) [µM] | IC50 fold change to WT ([1]; PSEN1 Y154A–APH1A cell pool) | IC50 [2] [µM] | IC50 fold change to WT ([2]; PSEN1 F388A–APH1A cell pool) | IC50 [3] [nM] | IC50 [4] [nM] | IC50 [5] [µM]
1 | C[C@H](NC(=O)Cc1cc(F)cc(F)c1)C(=O)N[C@H](C(=O)OC(C)(C)C)c1ccccc1 [DAPT] | 0.103 | 0,611 fold | 0.277 | 1,642 fold | – | – | –
2 | O=S(=O)(c1ccc(Cl)cc1)N1[C@H]2CC[C@@H]([C@H]1c1ccc(C(F)(F)F)cc1)[C@@H](O)C2 [(+)-9b] | – | – | 0.403 | – | 22 | 1670 | 1.03
